Experimental data: PubChem BioAssay (NCI)
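A five-concentration, 48-hour dose response in 96-well plates underlies each endpoint, interpolated linearly between surrounding concentrations. TGI marks complete inhibition of growth.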

Columns and labels:
Assay in all cases: inhibition of tumour cell growth, NCI panel, 48 h
[1] = tested on: CAKI-1 renal
[2] = tested on: SF-268 CNS
[3] = tested on: ACHN renal
[4] = tested on: UACC-62 melanoma
[5] = tested on: OVCAR-4 ovarian
[6] = tested on: HCT-15 colon
[7] = tested on: MCF7 breast
[8] = tested on: MDA-MB-435
[9] = tested on: NCI-H522 lung
[10] = tested on: HOP-62 NSCLC
[11] = tested on: SK-MEL-2 melanoma
[12] = tested on: HCT-116 colon
[13] = tested on: SK-MEL-28 melanoma
[14] = tested on: SN12C renal
[15] = tested on: LOX IMVI melanoma
[16] = tested on: COLO 205 colon
[17] = tested on: HS 578T breast
[18] = tested on: SK-MEL-5 melanoma
[19] = tested on: U251 CNS
[20] = tested on: SF-295 CNS
[21] = tested on: K-562 leukemia
[22] = tested on: HL-60(TB) leukemia
[23] = tested on: SK-OV-3 ovarian
[24] = tested on: IGROV1 ovarian
[25] = tested on: MALME-3M melanoma
[26] = tested on: M14 melanoma
[27] = tested on: KM12 colon
[28] = tested on: PC-3 prostate
[29] = tested on: NCI-H23 lung
[30] = tested on: NCI/ADR-RES ovarian
[31] = tested on: NCI-H226 lung
[32] = tested on: OVCAR-3 ovarian
[33] = tested on: RPMI-8226 leukemia
[34] = tested on: HOP-92 NSCLC
[35] = tested on: SF-539 CNS
[36] = tested on: TK-10 renal
[37] = tested on: RXF 393 renal
[38] = tested on: NCI-H460 lung
[39] = tested on: 786-0 renal
[40] = tested on: CCRF-CEM leukemia
[41] = tested on: EKVX NSCLC
[42] = tested on: SW-620 colon
[43] = tested on: A549 NSCLC
[44] = tested on: SNB-19 CNS
[45] = tested on: SR leukemia
[46] = tested on: MDA-N
[47] = tested on: MDA-MB-231 breast
[48] = tested on: BT-549 breast
[49] = tested on: HT29 colon
[50] = tested on: OVCAR-8 ovarian
[51] = tested on: UACC-257 melanoma
[52] = tested on: DU-145 prostate
[53] = tested on: MOLT-4 leukemia
[54] = tested on: SNB-75 CNS
[55] = tested on: OVCAR-5 ovarian
[56] = tested on: T-47D breast

Measured: TGI

O=C1CCN2C(=N1)Sc1ccccc12
> 100 µM: [1] | [2] | [3] | [4] | [5] | [6] | [7] | [8] | [9] | [10] | [11] | [12] | [13] | [14] | [15] | [16] | [17] | [18] | [19] | [20] | [21] | [22] | [23] | [24] | [25] | [26] | [27] | [28] | [29] | [30] | [31] | [32] | [33] | [34] | [35] | [36] | [37] | [38] | [39] | [40] | [41] | [42] | [43] | [44] | [45] | [46] | [47] | [48] | [49] | [50] | [51] | [52] | [53] | [54] | [55] | [56]
